Source: EP4640678A1, “NOVEL OXO-PYRIDINE COMPOUND, PREPARATION METHOD THEREFOR, AND USE THEREOF” (Chengdu Shibeikang Biomedical Technology Co., Ltd., priority 2022, dated 2024)

Tests used:
[1] = Study of pharmacokinetics in rats; type: in vivo; settings: rat, po; male SD rats, intragastrical gavage, 30 mg/kg, plasma
Procedure: Each group was administered via intragastrical gavage at a dose of 30 mg/kg.
About 0.5 mL of blood was collected, placed in an EDTA-K2 tube, centrifuged to separate plasma, and stored at -80°C. The drug plasma concentration was measured using a liquid chromatography-tandem mass spectrometry analysis system (LC-MS/MS), and pharmacokinetic parameters, such as AUC0-t, Cmax, Tmax and t1/2, were calculated based on the drug plasma concentration data using DAS 2.0 software.

human FXla = human FXla (Homo sapiens, UniProt P03951); assay: Activity assay of coagulation factor FXla inhibitor (S-2366 substrate, OD405nm); type: biochemical; settings: 5 concentrations 200 nM to 0.32 nM, 0.8 nM (2X) human FXla working solution
Text: X: log value of compound concentration; Y: inhibition rate (%).

[2] = Effect of continuous in-vivo administration on general condition and food intake of rats; settings: 500 mg/kg PO once a day for 14 days, within 24 hours after the last administration; for food intake compared with the blank group: SD rats
Text: Each group had 10 rats, equally distributed by gender. The rats received drug administrations via oral gavage once a day for 14 consecutive days, following the administration regimen outlined in the table below. The blank group was given an equal volume of a vehicle. […] Table 4 Continuous administration regimen

human plasma = assay: determination of in-vitro anticoagulant effect in human plasma (APTT); type: biochemical; settings: for APTT prolongation rate (%): healthy human plasma, 37°C for 3 min; for EC150: estimated from the APTT test results in human plasma
Procedure: After centrifugation, the plasma sample was pipetted and frozen (-80°C) for later use.
A proper amount of a compound was weighed and prepared into a 10-100 mM stock solution using 100% of DMSO (the specific concentration of the stock solution was determined based on the properties of the compound); and then working solutions with various concentrations (specifically: 1 µM, 3 µM and 10 µM, respectively) were prepared from the stock solution using the healthy human plasma as a solution and thoroughly mixed. After incubation at 37°C for 3 min, the sample was placed on an instrument (model: CS-2000I) to determine APTT.
GraphPad Prism software was used for analysis to calculate the APTT prolongation rate at each concentration.

Chain of human FXla (P03951 388-625 limits assumed): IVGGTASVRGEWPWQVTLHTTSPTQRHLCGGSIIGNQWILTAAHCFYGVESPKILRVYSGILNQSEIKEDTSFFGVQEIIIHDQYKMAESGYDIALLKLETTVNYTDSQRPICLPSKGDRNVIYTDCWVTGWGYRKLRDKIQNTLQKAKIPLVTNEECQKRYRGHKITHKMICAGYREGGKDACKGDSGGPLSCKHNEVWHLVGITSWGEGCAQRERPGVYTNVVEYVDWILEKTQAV
Chain of human FXla (P03951 19-387 partner limits assumed): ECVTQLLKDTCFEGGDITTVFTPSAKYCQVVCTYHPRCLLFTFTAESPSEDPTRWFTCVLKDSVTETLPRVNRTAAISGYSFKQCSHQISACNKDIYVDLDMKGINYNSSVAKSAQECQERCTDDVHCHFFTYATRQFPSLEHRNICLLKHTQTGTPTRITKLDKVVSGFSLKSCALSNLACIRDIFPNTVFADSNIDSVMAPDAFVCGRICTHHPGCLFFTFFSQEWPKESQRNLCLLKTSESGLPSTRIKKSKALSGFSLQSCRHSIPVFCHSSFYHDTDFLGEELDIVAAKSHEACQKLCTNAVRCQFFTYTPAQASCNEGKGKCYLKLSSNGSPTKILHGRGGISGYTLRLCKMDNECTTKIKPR

AUC(0-t) [1] | Cmax [1] | Tmax [1] | half-life [1] | IC50 (human FXla) | Food intake (g, mean±SD) [2] | Compound | food intake compared with the blank group [2] | APTT prolongation rate (%) (human plasma; 3 µM) | APTT prolongation rate (%) (human plasma; 10 µM) | EC150 (human plasma)
85.9 µg·h/mL | 6740 ng/mL | 3.94 h | 7.75 h | 0.91 nM | 27.22 ± 1.33 g | CC[C@@H](C(=O)Nc1ccc(C(=O)O)c(Cl)c1)n1cc(OC)c(-c2cc(Cl)ccc2-n2cc(C(F)(F)F)nn2)cc1=O [Compound 2, (S)-2-chloro-4-(2-(4-(5-chloro-2-(4-(trifluoromethyl)-1H-1,2,3-triazol-1-yl)phenyl)-5-methoxy-2-oxopyridin-1(2H)-yl)butanamido)benzoic acid] | essentially the same food intake as the blank group | 88.9% | 124.8% | less than 1 µM
159 µg·h/mL | 26500 ng/mL | 2.3 h | 1.9 h | 1.87 nM | 27.00 ± 1.42 g | [2H]C([2H])([2H])Oc1cn([C@@H](CC)C(=O)Nc2ccc(C(=O)NC)c(F)c2)c(=O)cc1-c1cc(Cl)ccc1-n1cc(C(F)(F)F)nn1 [Compound 25, (S)-4-(2-(4-(5-chloro-2-(4-(trifluoromethyl)-1H-1,2,3-triazol-1-yl)phenyl)-5-(methoxy-d3)-2-oxopyridin-1(2H)-yl)butanamido)-2-fluoro-N-methylbenzamide] | essentially the same food intake as the blank group | 76.7% | 158.5% | less than 1 µM
129 µg·h/mL | 21000 ng/mL | 2.7 h | 3.33 h | 1.15 nM | 26.49 ± 1.21 g | [2H]C([2H])([2H])NC(=O)c1ccc(NC(=O)[C@H](CC)n2cc(OC)c(-c3cc(Cl)ccc3-n3cc(C(F)(F)F)nn3)cc2=O)cc1F [Compound 26, (S)-4-(2-(4-(5-chloro-2-(4-(trifluoromethyl)-1H-1,2,3-triazol-1-yl)phenyl)-5-(methoxy)-2-oxopyridin-1(2H)-yl)butanamido)-2-fluoro-N-(methyl-d3)benzamide] | essentially the same food intake as the blank group | 78.3% | 159.5% | less than 1 µM
291 µg·h/mL | 27200 ng/mL | 4.43 h | 4.01 h | 2.98 nM | 27.08 ± 1.19 g | [2H]C([2H])([2H])NC(=O)c1ccc(NC(=O)[C@H](CC)n2cc(OC([2H])([2H])[2H])c(-c3cc(Cl)ccc3-n3cc(C(F)(F)F)nn3)cc2=O)cc1F [Compound 27, (S)-4-(2-(4-(5-chloro-2-(4-(trifluoromethyl)-1H-1,2,3-triazol-1-yl)phenyl)-5-(methoxy-d3)-2-oxopyridin-1(2H)-yl)butanamido)-2-fluoro-N-(methyl-d3)benzamide] | essentially the same food intake as the blank group | 79.7% | 142.5% | less than 1 µM
